Laboratory results reported in US20150159169A1, “Plants Tolerant to HPPD Inhibitor Herbicides” (Bayer CropScience AG, priority 2009, published 2015).
Entries after “also recorded” stand apart in the source; their conditions may differ.

Legend:
[1] = target: Kordia algicida HPPD "SEQ ID No. 5" (FMP27e) (Kordia algicida, UniProt A9DQF2); assay: HPLC assay of HPPD in vitro kinetic properties; format: biochemical
Experimental: Km, Vmax, and kcat values for different HPPD enzyme preparations and Ki, K1=Kon, and K−1=Koff for different HPPD inhibitors were determined using a HPLC assay for measurements of HPPD activity. […] All assays were started by the addition of HPPD enzyme to the assay mixture and stopped at a series of times between 0 and 240 s by addition of 200 μl of the reaction mixture to reaction assay tubes containing 20 μl 10% perchloric acid. Precipitated protein was pelleted by a 5 minute centrifugation at 10,000 g.
For Km and Vmax value determinations the initial rates of the HPPD reaction at different substrate concentrations were determined from plots of HGA formed versus time and fitted to the Michaelis-Menten equation for unireactant enzymes using the ID Business Solutions Ltd. (idbs.com) XLfit software suite.

[2] = system: T0 tobacco plants expressing the FMP27 HPPD (FMP27t); assay: Greenhouse response of T0 tobacco plants to tembotrione; format: in vivo, Nicotiana tabacum; details: 100 g AI/ha, two weeks after treatment
Experimental: As an example, rooted plants containing the T-DNA PromCaMV35S-OTP-HIS6-FMP27t-TerCaMV35S, were transferred to the greenhouse under standard growth conditions. Following a period of acclimation of two weeks, the T0 plants were treated with a mixture containing 100 g tembotrione/ha prepared from a WP20 (wettable powder 20%) formulation supplemented with ammonium sulfate and methyl ester raps oil. Two weeks after the treatment, the symptoms due to the application of the herbicides were evaluated. The plants were classified in four categories. The treated plants evaluated as “0” are looking like the untreated tobacco plants. The plants evaluated as “1” display temporarily light bleaching phenotype due to the application of the herbicides. The plants evaluated as “2” display permanent light to strong bleaching symptoms. Finally the plants evaluated as “3” are looking like wild type tobacco plants submitted to the same treatment.

[3] = system: rice shoots containing AtHPPD; assay: Bleaching of rice shoots on MS/2 with tembotrione; format: cell-based; details: 2 weeks
Experimental: (§1) Rice transformation is achieved using methods well known in the art. Briefly, the Agrobacterium tumefaciens mediated transformation of rice was performed using immature embryos, from the restorer line 6G4317. Briefly, panicles from donor plants were harvested 8-12 days after pollination. The lemma of the immature seed was removed. Seeds were thereafter sterilized using a NaOCl based solution and Tween. The seeds were preinduced with […]. Agrobacterium tumefaciens cells are then co-cultivated with the preinduced seeds in presence of acetosyringone for 4 days at 24° C. in the dark. Thereafter, coleoptile from embryos are removed and washed, then put on a media supplemented with phosphinothricin for 3 weeks at 28° C. under a photoperiod rhythm of 16 hours. Then the growing calli were cut off from the embryos, and transferred to fresh media containing triacillin, phosphinothricin, L-proline and copper (II) sulfate.
(§2) For each callus-line and per Tembotrione concentration, 3 shoots, and randomly isolated from different callus pieces, were transferred to MS/2 with Tembotrione. As a general rule, transfer of the shoots from regeneration medium to MS/2 occurred 9 weeks after calli had been put on regeneration medium.
(§3) Cultures were incubated at 26.5° C. (16 hrs. photoperiod) and evaluation of symptoms occurred 2 weeks later.
(§4) New developing leaves of the shoots transferred have been scored on the basis of bleaching and categorized in 3 groups:
(§5) a) no bleaching b) intermediate bleaching c) complete bleaching
(§6) Within the category Intermediate bleaching′ a distinction has been made between shoots having new leaves showing only very little bleaching symptoms and thus tending to green leaves, and shoots with new leaves almost completely bleached.

[4] = system: rice shoots containing FMP27e; assay: Bleaching of rice shoots on MS/2 with tembotrione; format: cell-based; details: 2 weeks
Experimental: as §1, §2, §3, §4, §5, §6

[5] = system: T0 rice plants containing AtHPPD; assay: Rice glasshouse response to tembotrione, injury classes; format: in vivo; details: 100 g AI/ha, 7 DAT
Experimental: (§7) T0 rooted plantlets (either selected on phosphinothricin alone or on phosphinothricin supplemented with tembotrione) were transferred to soil in the glasshouse. Following an acclimation period, sufficiently grown plants were treated with the different HPPD inhibitor herbicides. As an example, T0 plants were sprayed with tembotrione of formulation type WP20 (100 g AI/ha) supplemented with ammonium sulfate and methyl ester raps oil. Seven days after the spray application, the symptoms due to the application of the herbicide were evaluated and compared the symptoms observed on wild type plants submitted to the same treatment.
(§8) The plants were classified in three categories based on the phenotype developed in response to the herbicide seven days after the treatment.

[6] = system: T0 rice plants containing FMP27e; assay: as above; format: in vivo; details: 100 g AI/ha, 7 DAT
Experimental: as §7, §8

[7] = system: wild type rice plants; assay: as above; format: in vivo; details: 100 g AI/ha, 7 DAT; no transgene
Experimental: as §7, §8

[8] = system: soybean events expressing the FMP27 HPPD protein; assay: Soybean greenhouse response to tembotrione; format: in vivo; details: 100 g AI/ha, ten days after application; eight events
Experimental: Plants containing the transgene were then sprayed with HPPD inhibitor herbicides, as for example with tembotrione at a rate of 100 g AI/ha. Ten days after the application the symptoms due to the application of the herbicide were evaluated and compared to the symptoms observed on wild type plants under the same conditions. Eight events expressing the FMP27 HPPD protein have been generated from the green shoots of above and were transferred to the greenhouse. Four weeks after acclimation, i.e. plants at a developmental stage of 3-4 internodes were treated with 100 g AI/ha tembotrione prepared from a WP 20 formulation supplemented with ammonium sulfate and methyl ester raps oil. Ten days after application, the symptoms caused by the application of the HPPD inhibitor herbicide were evaluated and compared to the symptoms observed on treated non-transgenic wild-type soybean plants.

Chain of Kordia algicida HPPD "SEQ ID No. 5" (FMP27e) (A9DQF2 entry or part of it): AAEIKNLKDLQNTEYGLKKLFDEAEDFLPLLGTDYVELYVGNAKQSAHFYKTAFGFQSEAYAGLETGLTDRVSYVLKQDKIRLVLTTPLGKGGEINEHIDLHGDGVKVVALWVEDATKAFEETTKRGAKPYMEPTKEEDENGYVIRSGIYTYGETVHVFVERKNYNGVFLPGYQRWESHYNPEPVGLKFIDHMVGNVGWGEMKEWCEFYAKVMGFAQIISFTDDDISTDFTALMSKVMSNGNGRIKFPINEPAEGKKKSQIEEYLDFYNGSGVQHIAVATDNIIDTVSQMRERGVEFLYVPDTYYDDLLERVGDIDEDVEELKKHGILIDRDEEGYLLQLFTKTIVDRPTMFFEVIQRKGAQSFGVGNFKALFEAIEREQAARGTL

SMILES: CS(=O)(=O)c1ccc(C(=O)C2C(=O)CCCC2=O)c(Cl)c1COCC(F)(F)F [Tembotrione, 2-[2-chloro-4-(methylsulfonyl)-3-[(2,2,2,-tri-fluoroethoxy)methyl]benzoyl]-1,3-cyclo-hexanedione]
- Ki [1]: 33 µM
- kon ([1]; read-out: k1 (=Kon)): 490 M⁻¹ s⁻¹
- koff ([1]; read-out: k−1 (=Koff)): 0.016 s⁻¹
- number of plants in category 0 (looking like the untreated tobacco plants) [2]: 11
- number of plants in category 1 (temporarily light bleaching) [2]: 4
- number of plants in category 2 (permanent light to strong bleaching) [2]: 10
- number of plants in category 3 (like wild type plants submitted to the same treatment) [2]: 4
- N^o of shoots completely bleached ([3]; 1 μM): 12
- N^o of shoots with intermediate bleaching ([3]; 1 μM): 19
- N^o of shoots without bleaching ([3]; 1 μM): 27
- N^o of shoots completely bleached ([3]; 5 μM): 58
- N^o of shoots with intermediate bleaching ([3]; 5 μM): 2
- N^o of shoots without bleaching ([3]; 5 μM): 0
- N^o of shoots completely bleached ([4]; 1 μM): 10
- N^o of shoots with intermediate bleaching ([4]; 1 μM): 19
- N^o of shoots without bleaching ([4]; 1 μM): 28
- N^o of shoots completely bleached ([4]; 5 μM): 36
- N^o of shoots with intermediate bleaching ([4]; 5 μM): 21
- N^o of shoots without bleaching ([4]; 5 μM): 0
- Class I, number of plants (no injuries) [5]: 1
- Class II, number of plants (injury: 10-40%) [5]: 13
- Class III, number of plants (injury: 41-100%) [5]: 9
- Class I, number of plants (no injuries) [6]: 2
- Class II, number of plants (injury: 10-40%) [6]: 17
- Class III, number of plants (injury: 41-100%) [6]: 4
- Class I, number of plants (no injuries) [7]: 0
- Class II, number of plants (injury: 10-40%) [7]: 0
- Class III, number of plants (injury: 41-100%) [7]: 20
- bleaching symptoms of events [8]: Two of the eight events didn't show any bleaching phenotype; also recorded: One event showed transitory light bleaching symptoms but recovered 14 days after tembotrione application; also recorded: remaining five events exhibited the bleaching like non-transgenic wild-type soybean plant
